According to patent publication US20180320177A1, “COMPOSITIONS AND METHODS FOR THE TREATMENT OF LIVER FIBROSIS” (UNIVERSITY OF CONNECTICUT, priority 2015, published 2018):

Columns and labels:
MMP and Rho signaling = assay: Western blot of MMP and Rho signaling in TIC cells; type: cell-based; conditions: TIC cells (FIG. 7E)
Description: (§1) Western Blotting: Total protein lysates were prepared from livers and cells in lysis buffer containing 50 mM Tris, pH 8.0, 1% Nonidet™ P-40, 150 mM NaCl, 0.5% sodium deoxycholate, 0.1% SDS with protease inhibitors (Thermo Fisher Scientific) and subjected to immunoblotting. Nuclear and cytoplasmic subcellular fractions were prepared using NE-PER nuclear and cytoplasmic extraction reagents (Pierce) according to the manufacturer's instructions. The blot was incubated with a primary antibody, followed by a secondary antibody conjugated to horseradish peroxidase. ECL kit (Pierce) was used to detect the reactivity. The following antibodies were obtained from Cell Signaling Technology: HMGB2, HMGB1, AKT, p-AKT, mTOR, p-mTOR, ERK1/2, pERK1/2, Raptor, Rictor, p53, p21, p-Bad, Smad4, p-Smad2/3, Lamin A/C, a-SMA, MMP2, MMP9, TIMP1, RhoA, Rho-GTP, Cdc42, Rac1/2/3. Anti-HA antibody and anti-beta actin antibody were purchased from Sigma and Santa Cruz Biotechnology, respectively.
(§2) Cell Lines The LX-2 human stellate cell line was maintained in Dulbecco's Modified Eagle's Medium (DMEM) supplemented with 2% fetal bovine serum (FBS), 100 IU/ml penicillin, and 100 μg/ml streptomycin. Human hepatocellular carcinoma (HCC) MHCC97H cells were maintained in DMEM supplemented with 10% FBS, 100 IU/ml penicillin, and 100 μg/ml streptomycin, 1 mM HEPES, 1 mM sodium pyruvate, 2 mM L-glutamine. Tumor-initiating (TIC) cells were obtained from Dr. Hidekazu Tsukamoto at University of Southern California and were maintained in 1:1 DMEM:F12 supplement with 100 U/ml penicillin and 100 μg/ml streptomycin, 2 mM glutamine, 20 ng/ml mouse EGF, 10 nM dexamethasone, 1× embryomax nucleotides. All the cells were maintained at 37° C. humidified atmosphere with 5% CO2. TIC cells were infected with Hmgb2 shRNA lentivirus for 48 hr, and treated with 500 ng/ml puromycin for 2 weeks. The stable cells were used for migration and invasion assay, as well as western blot.

CGR8 ES cells = assay: CGR8 ES cell differentiation and EB formation; type: cell-based, mouse
Description: Cell culture, Cell transfection:HEK293T, Hela, Hep3B and MHCC97H cells were cultured and transfected using X-tremeGENE™ HP DNA transfection reagent (Roche) as described previously. CGR8 ES cells were cultured on 0.1% gelatin coated tissue-culture dish in knockout DMEM medium containing 15% ES qualified-Fetal Bovine Serum, 2 mM L-glutamin, 0.1 mM NEAA, 0.1 mM β-mercaptoethanol, 50 μg/ml penicillin-streptomycin and 10 ng/ml Leukemia inhibitory factor (LIF). TIC cells were cultured in DMEM-F12 medium containing Embryomax nucleotides, 2 mM L-glutamin, 0.1 mM NEAA, 20 ng/ml mouse EGF, 50 μg/ml penicillin-streptomycin and […].
ES cells EB formation and TICs spheroid assay: CGR8 ES cells were trypsinized into single cells and cultured in ES medium devoid of LIF in hanging drops (900 cells per EB) for 2 d and transferred to ultralow attachment plate for a further 2 d suspension culture. Then, EBs were plated onto gelatin coated tissue-culture plate for further 7 d spontaneously differentiation.
FIGS. 10A-C show the establishment of CGR8 cell culture and differentiation. […] Undifferentiated feeder-free CGR8 ES cells were maintained on 0.1% gelatin coated 6-cm tissue-culture dish in ES medium containing 10 ng/ml Leukemia inhibitory factor (LIF). For EB formation, CGR8 ES cells were trypsinized into single cells and cultured in ES medium devoid of LIF in hanging drops (900 cells per EB) for 2 d and in suspension culture for a further 2 d. Then, EBs were transferred onto gelatin coated tissue-culture plate for further spontaneously differentiation. ES withdraw LIF 2d, CGR8 ES cells were cultured in ES medium devoid of LIF for 2 d.
FIG. 14A is Left, Western blot of HMGB2 and SOX2 protein in HEK293T cells transfected with 0.5 μg […] expression plasmid and 0, 1 or 2 μg Flag-HMGB2 expression plasmid. Right, Western blot of HMGB2 and OCT4 protein in HEK293T cells transfected with 0.5 μg HA-OCT4 expression plasmid and 0, 1 or 2 μg Flag-HMGB2 expression plasmid. […] CGR8 cells were lysed, co-immunoprecipitated with OCT4 antibody, followed by Western blot with HMGB2 or OCT4 antibodies. FIG. 14 C is a luciferase reporter assay. HepG2 cells were infected with AAV8-GFP or AAV8-HMGB2 24 hrs before being transfected with 6*OS luciferase reporter and OCT4, SOX2 expression plasmids alone or in combination.

HMGB2 = molecular target: T1, HMGB2 (Homo sapiens, UniProt P26583); assay: Western blot of HMGB2 protein in LX-2 and Huh7 cells treated with ICM; type: cell-based; parameters: endogenous in cells; host or cells: LX-2, Huh7; conditions: for HMGB2 protein: fresh media every day for 3 days (FIG. 18 left)
T1 sequence (P26583 1-209): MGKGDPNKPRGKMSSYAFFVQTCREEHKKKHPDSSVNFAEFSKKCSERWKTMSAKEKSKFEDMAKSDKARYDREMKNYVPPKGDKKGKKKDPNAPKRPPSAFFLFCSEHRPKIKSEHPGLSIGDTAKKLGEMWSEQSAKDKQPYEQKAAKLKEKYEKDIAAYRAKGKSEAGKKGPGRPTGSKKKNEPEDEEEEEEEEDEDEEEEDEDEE
Description: as §1, §2

Compound | MMP signaling (MMP and Rho signaling) | Rho signaling (MMP and Rho signaling) | CGR8 differentiation (CGR8 ES cells; 5 μM ICM versus DMSO (FIG. 14E)) | HMGB2 protein (HMGB2; Huh7 cells) | cytoplasm HMGB2 protein (HMGB2; LX2 cells (FIG. 5C)) | HMGB2 protein (HMGB2; LX-2 cells) | spheroid formation of CGR8 cells (CGR8 ES cells; EB formation, AAV8 infection versus AAV8-Null (FIG. 14D)) | CGR8 differentiation (CGR8 ES cells; knockdown of HMGB2 (summary))
CC1(C)Oc2cc(O)ccc2C2C1=CCn1c(=O)n(-c3ccccc3)c(=O)n12 (stereo not shown) [ICM, inflachromene] | decreased | decreased | induces CGR8 differentiation | dose-dependently decreased | reduces cytoplasm HMGB2 protein | dose-dependently decreased |  | 
shHMGB2: small hairpin RNA against HMGB2 (SEQ ID NO: 8), delivered by AAV or lentivirus (CCGGGCTCAACATTAGCTTCAGTATCTCGAGATACTGAAGCTAATGTTGAGCTTTTTG) | decreased | decreased |  |  |  |  | decreases spheroid formation | promotes CGR8 differentiation
